Measurements published in PMC9090415, “Discovery of small molecule inhibitors of Plasmodium falciparum apicoplast DNA polymerase” (Journal of Enzyme Inhibition and Medicinal Chemistry, 2022).

Molecular target: P. falciparum apicoplast DNA polymerase (Pf-apPOL) (Plasmodium falciparum, UniProt Q8ILY1)
Assay: Fluorescence-based high-throughput DNA polymerase assay (molecular beacon), primary screen and dose-response
Format: biochemical
Conditions: for DNA Pol: 90 min, 10 µM; for % inhibition Apo pol 10' 2.5 / % inhibition Apo pol 10' 5 / % inhibition Apo pol 10' 10 / % inhibition Apo pol 10' 20 / % inhibition Apo pol 10' 40 / % inhibition Apo pol 10' 80: read at 10'; for % inhibition Apol 90' 2.5 / % inhibition Apol 90' 5 / % inhibition Apol 90' 10 / % inhibition Apol 90' 20 / % inhibition Apol 90' 40 / % inhibition Apol 90' 80 / % inhibition ApPOL 90' 2.5 / % inhibition ApPOL 90' 5 / % inhibition ApPOL 90' 10 / % inhibition ApPOL 90' 20 / % inhibition ApPOL 90' 40 / % inhibition ApPOL 90' 80: read at 90'; for % inhibition apPOL 180' 2.5 / % inhibition apPOL 180' 5 / % inhibition apPOL 180' 10 / % inhibition apPOL 180' 20 / % inhibition apPOL 180' 40 / % inhibition apPOL 180' 80: read at 180'; for % inhibition Apo pol 5' 2.5 / % inhibition Apo pol 5' 5 / % inhibition Apo pol 5' 10 / % inhibition Apo pol 5' 20 / % inhibition Apo pol 5' 40 / % inhibition Apo pol 5' 80: read at 5'; for % inhibition Apol 40' 2.5 / % inhibition Apol 40' 5 / % inhibition Apol 40' 10 / % inhibition Apol 40' 20 / % inhibition Apol 40' 40 / % inhibition Apol 40' 80: read at 40'
In short: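 Single-point screening used 10 µM compound with 20 nM polymerase, 20 nM hairpin substrate and 6 µM dNTPs for 90 min at 25 °C. Confirmatory titrations (2.5–80 µM) followed fluorescence at three times, and IC50 was derived from a fit including a cooperativity term n.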

[1] = 186 hits, DNA Pol (screen value), unit not given
[2] = 'DNA Pol' (screen value), unit not given

Chain of P. falciparum apicoplast DNA polymerase (Pf-apPOL) (Q8ILY1 entry or part of it): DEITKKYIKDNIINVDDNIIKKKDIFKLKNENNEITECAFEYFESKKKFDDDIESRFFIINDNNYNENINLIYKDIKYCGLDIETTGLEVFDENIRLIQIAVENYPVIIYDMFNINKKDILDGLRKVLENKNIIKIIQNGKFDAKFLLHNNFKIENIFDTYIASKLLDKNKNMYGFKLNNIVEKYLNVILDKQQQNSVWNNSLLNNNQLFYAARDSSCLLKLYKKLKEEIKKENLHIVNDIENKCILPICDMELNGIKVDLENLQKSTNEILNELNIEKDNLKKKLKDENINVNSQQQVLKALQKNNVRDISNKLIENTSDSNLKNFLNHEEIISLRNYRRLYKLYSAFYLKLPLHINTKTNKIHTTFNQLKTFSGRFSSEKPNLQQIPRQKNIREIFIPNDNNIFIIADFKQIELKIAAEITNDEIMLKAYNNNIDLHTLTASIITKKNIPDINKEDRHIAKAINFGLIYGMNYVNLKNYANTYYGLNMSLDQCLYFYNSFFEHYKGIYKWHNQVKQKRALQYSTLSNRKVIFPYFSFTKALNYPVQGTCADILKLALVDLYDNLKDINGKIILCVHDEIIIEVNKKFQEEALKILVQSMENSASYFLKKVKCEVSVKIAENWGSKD

## O=C(c1ccccc1)N1CCc2c(nc3cc(-c4ccccc4)[nH]n3c2=O)C1 [Molecule 30, O=C(N1CCc2c(C1)nc1n(c2=O)[nH]c(c1)c1ccccc1)c1ccccc1]
[1]
  DNA Pol: 51
[2]
  DNA Pol: 51
DRC-1, concentration 2.5
  % inhibition Apo pol 10' 2.5: 12.9086%
  % inhibition Apol 90' 2.5: 4.897%
  % inhibition apPOL 180' 2.5: 0.553%
DRC-1, concentration 5
  % inhibition Apo pol 10' 5: 15.849%
  % inhibition Apol 90' 5: 3.579%
  % inhibition apPOL 180' 5: -2.049%
DRC-1, concentration 10
  % inhibition Apo pol 10' 10: 54.0092%
  % inhibition Apol 90' 10: 37.2459%
  % inhibition apPOL 180' 10: 22.4217%
DRC-1, concentration 20
  % inhibition Apo pol 10' 20: 76.4447%
  % inhibition Apol 90' 20: 61.0288%
  % inhibition apPOL 180' 20: 42.2339%
DRC-1, concentration 40
  % inhibition Apo pol 10' 40: 86.2157%
  % inhibition Apol 90' 40: 75.6472%
  % inhibition apPOL 180' 40: 59.6497%
DRC-1, concentration 80
  % inhibition Apo pol 10' 80: 78.4105%
  % inhibition Apol 90' 80: 72.6232%
  % inhibition apPOL 180' 80: 57.0627%
DRC-2, concentration 5
  % inhibition Apo pol 5': 18%
  % inhibition ApPOL 90': 18%
  % inhibition Apo pol 5' 5: 18%
  % inhibition Apol 40' 5: 20%
  % inhibition ApPOL 90' 5: 18%
  % inhibition apPOL 180' 5: 10%
DRC-2, concentration 10
  % inhibition Apo pol 5': 37%
  % inhibition Apo pol 5' 10: 37%
  % inhibition Apol 40' 10: 41%
  % inhibition ApPOL 90' 10: 39%
  % inhibition apPOL 180' 10: 29%
DRC-2, concentration 20
  % inhibition Apo pol 5': 50%
  % inhibition Apol 40': 61%
  % inhibition ApPOL 90': 60%
  % inhibition apPOL 180': 50%
  % inhibition Apo pol 5' 20: 50%
  % inhibition Apol 40' 20: 61%
  % inhibition ApPOL 90' 20: 60%
  % inhibition apPOL 180' 20: 50%
DRC-2, concentration 80
  % inhibition Apo pol 5': 37%
  % inhibition ApPOL 90': 60%
  % inhibition Apo pol 5' 80: 37%
  % inhibition Apol 40' 80: 57%
  % inhibition ApPOL 90' 80: 60%
  % inhibition apPOL 180' 80: 54%
DRC-2, concentration 40
  % inhibition ApPOL 90': 61%
  % inhibition Apo pol 5' 40: 48%
  % inhibition Apol 40' 40: 62%
  % inhibition ApPOL 90' 40: 61%
  % inhibition apPOL 180' 40: 52%
DRC-2, concentration 2.5
  % inhibition Apo pol 5' 2.5: 6.51%
  % inhibition Apol 40' 2.5: 6.57%
  % inhibition ApPOL 90' 2.5: 5%
  % inhibition apPOL 180' 2.5: 0.84%

## Cc1ccsc1Cn1c(C)ccc1C [Molecule 70, Cc1ccsc1Cn1c(C)ccc1C]
[1]
  DNA Pol: 77
[2]
  DNA Pol: 77
DRC-1, concentration 2.5
  % inhibition Apo pol 10' 2.5: 0.1737%
  % inhibition Apol 90' 2.5: -5.458%
  % inhibition apPOL 180' 2.5: -10.1468%
DRC-1, concentration 5
  % inhibition Apo pol 10' 5: 5.431%
  % inhibition Apol 90' 5: -2.713%
  % inhibition apPOL 180' 5: -7.921%
DRC-1, concentration 10
  % inhibition Apo pol 10' 10: 19.8551%
  % inhibition Apol 90' 10: 8.027%
  % inhibition apPOL 180' 10: -1.934%
DRC-1, concentration 20
  % inhibition Apo pol 10' 20: 37.488%
  % inhibition Apol 90' 20: 21.1278%
  % inhibition apPOL 180' 20: 6.387%
DRC-1, concentration 40
  % inhibition Apo pol 10' 40: 56.0716%
  % inhibition Apol 90' 40: 39.127%
  % inhibition apPOL 180' 40: 21.8537%
DRC-1, concentration 80
  % inhibition Apo pol 10' 80: 76.6416%
  % inhibition Apol 90' 80: 69.1434%
  % inhibition apPOL 180' 80: 54.6421%
DRC-2, concentration 80
  % inhibition Apol 40': 62%
  % inhibition apPOL 180': 62%
  % inhibition Apo pol 5' 80: 47%
  % inhibition Apol 40' 80: 62%
  % inhibition ApPOL 90' 80: 64%
  % inhibition apPOL 180' 80: 62%
DRC-2, concentration 2.5
  % inhibition apPOL 180': -6%
  % inhibition Apo pol 5' 2.5: -3.3%
  % inhibition Apol 40' 2.5: -1.81%
  % inhibition ApPOL 90' 2.5: -3%
  % inhibition apPOL 180' 2.5: -6%
DRC-2, concentration 5
  % inhibition apPOL 180': -6%
  % inhibition Apo pol 5' 5: 5.66%
  % inhibition Apol 40' 5: 4%
  % inhibition ApPOL 90' 5: -0.174%
  % inhibition apPOL 180' 5: -6%
DRC-2, concentration 10
  % inhibition Apo pol 5' 10: 20%
  % inhibition Apol 40' 10: 18%
  % inhibition ApPOL 90' 10: 14%
  % inhibition apPOL 180' 10: 5.64%
DRC-2, concentration 20
  % inhibition Apo pol 5' 20: 32%
  % inhibition Apol 40' 20: 33%
  % inhibition ApPOL 90' 20: 28%
  % inhibition apPOL 180' 20: 16%
DRC-2, concentration 40
  % inhibition Apo pol 5' 40: 48%
  % inhibition Apol 40' 40: 56%
  % inhibition ApPOL 90' 40: 54%
  % inhibition apPOL 180' 40: 45%

## CC(NC(=O)Cc1cc(=O)[nH]c(SCc2cccc(Cl)c2)n1)c1ccccc1 (centres unmarked) [Molecule 67, O=C(NC(c1ccccc1)C)Cc1nc(SCc2cccc(c2)Cl)[nH]c(=O)c1]
'DNA Pol' of the 186 hits list (primary screen value)
  DNA Pol: 46
DNA Pol (primary screen value)
  DNA Pol: 46
DRC-1, concentration 2.5
  % inhibition Apo pol 10': -1.6671%
  % inhibition Apol 90': -5.257%
  % inhibition apPOL 180': -10.8024%
DRC-1, concentration 5
  % inhibition Apo pol 10': 0%
  % inhibition Apol 90': -6.461%
  % inhibition apPOL 180': -10.8936%
DRC-1, concentration 10
  % inhibition Apo pol 10': 11.4347%
  % inhibition Apol 90': 1.923%
  % inhibition apPOL 180': -3.791%
DRC-1, concentration 20
  % inhibition Apo pol 10': 48.0532%
  % inhibition Apol 90': 26.5805%
  % inhibition apPOL 180': 10.3203%
DRC-1, concentration 40
  % inhibition Apo pol 10': 64.8608%
  % inhibition Apol 90': 38.5858%
  % inhibition apPOL 180': 18.891%
DRC-1, concentration 80
  % inhibition Apo pol 10': 85.5547%
  % inhibition Apol 90': 80.0323%
  % inhibition apPOL 180': 71.4283%
DRC-2, concentration 2.5
  % inhibition Apo pol 5': 0.743%
  % inhibition Apol 40': 0.551%
  % inhibition ApPOL 90': 0.178%
  % inhibition apPOL 180': -3%
DRC-2, concentration 5
  % inhibition Apo pol 5': -0.394%
  % inhibition Apol 40': 0.92%
  % inhibition ApPOL 90': -1%
  % inhibition apPOL 180': -6%
DRC-2, concentration 10
  % inhibition Apo pol 5': 30%
  % inhibition Apol 40': 36%
  % inhibition ApPOL 90': 32%
  % inhibition apPOL 180': 20%
DRC-2, concentration 20
  % inhibition Apo pol 5': 33%
  % inhibition Apol 40': 49%
  % inhibition ApPOL 90': 48%
  % inhibition apPOL 180': 37%
DRC-2, concentration 40
  % inhibition Apo pol 5': 27%
  % inhibition Apol 40': 52%
  % inhibition ApPOL 90': 54%
  % inhibition apPOL 180': 49%
DRC-2, concentration 80
  % inhibition Apo pol 5': 20%
  % inhibition Apol 40': 55%
  % inhibition ApPOL 90': 64%
  % inhibition apPOL 180': 70%
